Source: patent US6515124B2, “Dehydroamino acids” (Hoffman-La Roche Inc., priority 2000, dated 2003)
pIC50: −log10 of the molar value.

Legend:
[1] = molecular target: T1, LFA-1 binding to immobilized ICAM-1 (Homo sapiens, UniProt P05107+P20701); test: LFA-1/ICAM-1 Protein-Protein Assay (solid-phase ELISA); settings: 5dICAM-Ig coated plates; membrane-bound LFA-1 from transfected 293 cells
T1 construct: made in house; host or cells: transfected 293 cells (LFA-1)
Experimental: LFA-1/ICAM-1 Protein-Protein Assay
LFA-1/ICAM-1 antagonist activity, defined as the ability to block LFA-1 binding to immobilized ICAM-1, was quantitated using a solid-phase ELISA. Typically, fusion protein consisting of the entire extracellular domain of human ICAM-1 and the Fc domain of human IgG (5dICAM-Ig) was coated onto 96-well microtiter plates (0.15 μg in 100 μL PBS) overnight at 4° C. The plates were then blocked with 150 μL of 1% BSA/1 mM MnCl2/0.14 M NaCl/20 mM HEPES, pH 7.2 for 1 h at 37° C. and washed 3 times (150 μL each) with Wash Buffer (50 mM Tris, pH 7.4/100 mM NaCl/1 mM MnCl2/0.05% Tween 20). Stock solutions (100 μM in 100% DMSO) of test compounds were diluted 50 fold with 150 μL of Binding Buffer (0.05% BSA/0.05% Tween 20/1 mM MnCl2/0.14 M NaCl/20 mM HEPES, pH 7.2) plus 10% DMSO. A series of 1:4 dilutions were performed to achieve a concentration range of 0.12 nM-2 μM. Fifty μL per well of each dilution was added to the ICAM-1 coated plates, followed by 50 μL per well of membrane-bound LFA-1 (280 ng/mL in Binding Buffer) derived from transfected 293 cells. The plates were shaken vigorously for 1 min (room temperature) and gently for 2 h (37° C.). After incubation, the plates were washed 3 times (150 μL each) with Wash Buffer. Mouse anti-human integrin β2 monoclonal antibody was added (100 μL/well, 1 μg/ml in Binding Buffer) and allowed to incubate for 1 h (37° C.) with gentle agitation. The plates were then washed 3 times with Wash Buffer. HRP-conjugated goat anti-mouse IgG (100 μL/well, 1:1500 dilution in Binding Buffer) was added to each well, followed by incubation for 1 h (37° C.) and concluded by three washes (150 μL each) with Wash Buffer. TMB solution (100 μL per well) was added for color development (10 min). The reaction was stopped by the addition of 100 μL of 1M H3PO4 to each well. The plates were then read at 450 nm.

[2] = tested on: T lymphocyte proliferation (murine spleen cells); test: Mixed Lymphocyte Reaction (MLR), one-way; assay type: cell-based, mice; settings: Mus musculus, T-lymphocyte, light or radiation study, 72 h, C57B1/6 spleen cells with irradiated BALB/c spleen cells; tritiated thymidine incorporation, 3 days
Text: Mixed Lymphocyte Reaction (MLR)
Admixture of murine spleen cells from two different inbred strains of mice induces proliferation of T lymphocytes. The magnitude of T cell proliferation depends on the extent of disparity in the major histocompatibility antigens between the two strains. Splenic T lymphocytes from both strains proliferate due to alloantigen recognition, a process for which the interaction of ICAM-1 on antigen-presenting cells with LFA-1 on lymphocytes is necessary. The ability of antagonists to inhibit T lymphocyte proliferation following recognition of alloantigens was assessed in a one-way MLR, where cells from one strain were irradiated to permit measurement of the proliferative response of cells from the other strain. Spleen cells were washed three times in tissue culture medium (TCM; see below). Fifty microliters of a spleen cell suspension (prepared at 10×10^6 cells/ml in TCM) obtained from C57B1/6 mice were added to an equal number of lethally-irradiated (2000 rads) spleen cells obtained from BALB/c mice in a 96-well U-bottom tissue culture plate (Costar, 3799). One hundred microliters of serial dilutions of antagonists or TCM were added to the spleen cell mixture. The total volume in each well was 200 μL. TCM was RPMI1640 containing 10% heat-inactivated fetal bovine serum, […] L-glutamine, 100 Units/ml each of penicillin and streptomycin and 5×10^−5 M 2-mercaptoethanol. Dilutions of antagonists were prepared in TCM. Plates were incubated in 5% CO2 for 3 days. On the third day, 0.5 μCi of tritiated thymidine (10 μCi/mL) was added to all the wells. Cells were harvested 6 h later on a 96-well plate harvester and the amount of tritiated thymidine incorporated was assessed in a liquid scintillation counter.

T1 sequence (P20701 26-1170): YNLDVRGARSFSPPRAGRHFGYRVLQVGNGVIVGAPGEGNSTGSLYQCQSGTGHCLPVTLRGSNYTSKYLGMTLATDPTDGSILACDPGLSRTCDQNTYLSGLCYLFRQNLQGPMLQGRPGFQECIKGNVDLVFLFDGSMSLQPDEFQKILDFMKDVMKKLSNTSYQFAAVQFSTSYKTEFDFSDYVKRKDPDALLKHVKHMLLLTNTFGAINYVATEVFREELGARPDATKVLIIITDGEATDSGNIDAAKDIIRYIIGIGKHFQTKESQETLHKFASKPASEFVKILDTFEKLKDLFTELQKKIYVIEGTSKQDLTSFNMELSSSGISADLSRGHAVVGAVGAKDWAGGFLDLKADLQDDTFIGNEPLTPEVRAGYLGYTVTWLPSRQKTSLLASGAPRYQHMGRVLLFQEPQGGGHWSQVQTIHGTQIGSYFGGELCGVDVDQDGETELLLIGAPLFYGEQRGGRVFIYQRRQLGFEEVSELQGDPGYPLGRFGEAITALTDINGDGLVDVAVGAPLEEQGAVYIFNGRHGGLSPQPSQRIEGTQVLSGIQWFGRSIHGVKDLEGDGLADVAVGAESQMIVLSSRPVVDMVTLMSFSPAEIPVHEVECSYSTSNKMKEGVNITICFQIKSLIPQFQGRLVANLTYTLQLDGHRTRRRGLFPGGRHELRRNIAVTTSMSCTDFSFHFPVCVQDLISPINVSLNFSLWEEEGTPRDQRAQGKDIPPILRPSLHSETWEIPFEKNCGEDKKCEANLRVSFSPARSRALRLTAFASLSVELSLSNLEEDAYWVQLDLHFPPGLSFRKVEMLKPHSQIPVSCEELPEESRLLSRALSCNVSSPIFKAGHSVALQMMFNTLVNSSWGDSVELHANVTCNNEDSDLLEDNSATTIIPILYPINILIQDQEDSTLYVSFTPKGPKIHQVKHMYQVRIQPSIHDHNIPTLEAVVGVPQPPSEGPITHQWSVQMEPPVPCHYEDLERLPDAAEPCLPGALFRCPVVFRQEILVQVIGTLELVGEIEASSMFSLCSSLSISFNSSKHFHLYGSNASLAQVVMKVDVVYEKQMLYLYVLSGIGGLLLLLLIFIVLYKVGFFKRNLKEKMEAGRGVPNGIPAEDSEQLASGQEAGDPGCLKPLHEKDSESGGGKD
T1 sequence (P05107 23-769): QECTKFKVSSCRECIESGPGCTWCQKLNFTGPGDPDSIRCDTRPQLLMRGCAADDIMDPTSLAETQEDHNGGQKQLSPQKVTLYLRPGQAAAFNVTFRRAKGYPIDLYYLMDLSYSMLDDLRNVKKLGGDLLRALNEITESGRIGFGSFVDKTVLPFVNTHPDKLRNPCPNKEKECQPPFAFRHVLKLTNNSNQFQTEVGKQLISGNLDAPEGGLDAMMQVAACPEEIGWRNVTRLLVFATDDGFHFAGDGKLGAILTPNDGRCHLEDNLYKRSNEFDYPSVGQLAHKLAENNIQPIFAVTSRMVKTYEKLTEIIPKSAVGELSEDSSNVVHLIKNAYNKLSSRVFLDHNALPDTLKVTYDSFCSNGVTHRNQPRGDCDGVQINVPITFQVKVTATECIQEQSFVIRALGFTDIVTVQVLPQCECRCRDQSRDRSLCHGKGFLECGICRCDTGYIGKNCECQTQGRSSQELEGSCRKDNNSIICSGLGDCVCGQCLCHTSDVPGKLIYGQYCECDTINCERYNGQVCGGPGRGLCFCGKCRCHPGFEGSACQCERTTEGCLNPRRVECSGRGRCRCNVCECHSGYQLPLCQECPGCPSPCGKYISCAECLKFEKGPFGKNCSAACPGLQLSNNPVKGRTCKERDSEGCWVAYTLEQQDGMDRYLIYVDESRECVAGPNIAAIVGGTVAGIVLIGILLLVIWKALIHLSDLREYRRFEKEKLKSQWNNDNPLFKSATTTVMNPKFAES

| SMILES | pIC50 [1] | pIC50 [2] |
| --- | --- | --- |
| O=C(O)/C(=C/c1cnc2ccccc2c1)NC(=O)c1ccc(C(O)CCc2cccc(O)c2)cc1Cl (racemic) [Example 296, rac.-(Z)-2-[[2-Chloro-4-[1-hydroxy-3-(3-hydroxyphenyl)propan-1-yl]benzoyl]amino]-3-(quinolin-3-yl)propenoic Acid] | 8.81 | 5.62 |
| Cc1nc(C)c(/C=C(\NC(=O)c2ccc(C(O)CCc3cccc(O)c3)cc2Cl)C(=O)O)s1 (racemic) [Example 297, rac.-(Z)-2-[[2-Chloro-4-[1-hydroxy-3-(3-hydroxyphenyl)propan-1-yl]benzoyl]amino]-3-(2,4-dimethylthiazol-5-yl)propenoic Acid] | 8.22 | 5.24 |
| Cc1nc(C)c(/C=C(\NC(=O)c2ccc(C(O)/C=C/c3cccc(O)c3)cc2Cl)C(=O)O)s1 (racemic) [Example 299, rac.-(Z)-2-[[2-Chloro-4-[(E)-1-hydroxy-3-(3-hydroxyphenyl)prop-2-en-1-yl]benzoyl]amino]-3-(2,4-dimethylthiazol-5-yl)propenoic Acid] | 7.88 | 5.00 |
| O=C(O)/C(=C/C1CCCNC1)NC(=O)c1ccc(C(=O)NCc2cccc(O)c2)cc1Br (racemic) [Example 318] | 6.77 | – |
| Cc1nc(/C=C(\NC(=O)c2ccc(C(=O)NCc3cccc(O)c3)cc2Br)C(=O)O)cs1 [Example 235, (Z)-2-[[2-Bromo-4-[[(3-hydroxybenzyl)amino]carbonyl]benzoyl]amino]-3-(2-methylthiazol-4-yl)propenoic Acid] | 7.37 | 4.87 |
| Cc1cc(C(=O)N[C@H](C)c2cccc3ccccc23)cc(C)c1C(=O)N/C(=C\c1ncc[nH]1)C(=O)O [Example 236] | 7.59 | 5.14 |
| Cc1cc(C(=O)N[C@H](C)c2cccc3ccccc23)cc(C)c1C(=O)N/C(=C\c1ccccc1)C(=O)O [Example 237] | 7.57 | 4.70 |
| Cc1cc(C(=O)N[C@H](C)c2cccc3ccccc23)cc(C)c1C(=O)N/C(=C\c1ccncc1)C(=O)O [Example 238] | 7.78 | – |
| C[C@@H](NC(=O)c1cc(Cl)c(C(=O)N/C(=C\c2ccc3[nH]nnc3c2)C(=O)O)c(Cl)c1)c1cccc2ccccc12 [Example 242] | 7.66 | – |
| O=C(O)/C(=C/c1ccoc1)NC(=O)c1ccc(C(=O)NCc2cccc(O)c2)cc1Br [Example 243] | 7.88 | – |
| O=C(O)/C(=C/c1ccc2nonc2c1)NC(=O)c1ccc(C(=O)NCc2cccc(O)c2)cc1Cl [Example 246] | 8.62 | 5.11 |
| O=C(O)/C(=C/c1nc(C(F)(F)F)cs1)NC(=O)c1ccc(C(=O)NCc2cccc(O)c2)cc1Br [Example 257] | 7.00 | – |
| Cc1nc(C(C)C)c(/C=C(\NC(=O)c2ccc(C(=O)NCc3cccc(O)c3)cc2Br)C(=O)O)s1 [Example 259] | 8.09 | – |
| O=C(O)/C(=C/c1cccs1)NC(=O)c1ccc(C(=O)NCc2cccc(O)c2)cc1Br [Example 271] | 7.48 | – |
| COc1ncc(/C=C(\NC(=O)c2ccc(C(=O)NCc3cccc(O)c3)cc2Br)C(=O)O)c(OC)n1 [Example 284] | 7.90 | – |
| O=C(O)/C(=C/c1ccccn1)NC(=O)c1ccc(C(=O)NCc2cccc3[nH]ccc23)cc1Cl [Example 310] | 7.25 | – |
| O=C(O)/C(=C/C1CCNCC1)NC(=O)c1ccc(C(=O)NCc2cccc(O)c2)cc1Br [Example 319] | 7.14 | – |
| O=C(O)/C(=C/c1cnc2ccccc2c1)NC(=O)c1ccc(C(=O)NCc2ccc3cc[nH]c3c2)cc1Cl [Example 324, (Z)-2-[[2-Chloro-4-[[[(1N-indol-6-yl)methyl]amino]carbonyl]benzoyl]amino]-3-(quinolin-3-yl)propenoic Acid] | 7.29 | – |

More lines, main results first:

| pIC50 [1] | SMILES | pIC50 [2] |
| --- | --- | --- |
| 8.37 | O=C(O)/C(=C/c1cnc2ccccc2c1)NC(=O)c1ccc(C(O)/C=C/c2cccc(O)c2)cc1Cl (racemic) [Example 298, rac.-(Z)-2-[[2-Chloro-4-[(E)-1-hydroxy-3-(3-hydroxyphenyl)prop-2-en-1-yl]benzoyl]amino]-3-(quinolin-3-yl)propenoic Acid] | 5.21 |
| 6.86 | O=C(O)/C(=C/CC1CCCCN1)NC(=O)c1ccc(C(=O)NCc2cccc(O)c2)cc1Br (racemic) [Example 320] | – |
| 8.67 | Cc1cc(C(=O)N[C@H](C)c2cccc3ccccc23)cc(C)c1C(=O)N/C(=C\c1ccc2[nH]nnc2c1)C(=O)O [Example 239] | – |
| 8.32 | Cc1cc(C(=O)N[C@H](C)c2cccc3ccccc23)cc(C)c1C(=O)N/C(=C\c1[nH]cnc1C)C(=O)O [Example 240] | 5.46 |
| 8.69 | Cc1cc(C(=O)N[C@H](C)c2cccc3ccccc23)cc(C)c1C(=O)N/C(=C\c1cnc2ccccc2c1)C(=O)O [Example 241] | 5.59 |
| 8.71 | Cc1nc(C)c(/C=C(\NC(=O)c2ccc(C(=O)NCc3cccc(O)c3)cc2Cl)C(=O)O)s1 [Example 244] | 5.52 |
| 9.03 | O=C(O)/C(=C/c1ccc2ncsc2c1)NC(=O)c1ccc(C(=O)NCc2cccc(O)c2)cc1Cl [Example 245] | 5.86 |
| 7.43 | Cc1cc(C(=O)NCc2cc(F)cc(F)c2)cc(C)c1C(=O)N/C(=C\c1[nH]cnc1C)C(=O)O [Example 250, (Z)-2-[[4-[[(3,5-Difluorobenzyl)amino]carbonyl]-2,6-dimethylbenzoyl]amino]-3-(4-methyl-1H-imidazol-5-yl)propenoic Acid] | – |
| 6.55 | CC(C)c1csc(/C=C(\NC(=O)c2ccc(C(=O)NCc3cccc(O)c3)cc2Br)C(=O)O)n1 [Example 256] | – |
| 6.91 | O=C(O)/C(=C/c1cnc(-c2cccs2)s1)NC(=O)c1ccc(C(=O)NCc2cccc(O)c2)cc1Br [Example 262] | – |
| 6.91 | O=C(O)/C(=C/c1cnnc2ccccc12)NC(=O)c1ccc(C(=O)NCc2cccc(O)c2)cc1Br [Example 265] | – |
| 7.37 | O=C(O)/C(=C/c1ccc2ccccc2n1)NC(=O)c1ccc(C(=O)NCc2cccc(O)c2)cc1Br [Example 275] | – |
| 7.30 | O=C(O)/C(=C/c1nc2ccccc2s1)NC(=O)c1ccc(C(=O)NCc2cccc(O)c2)cc1Br [Example 276] | – |
| 6.70 | Cn1c(/C=C(\NC(=O)c2ccc(C(=O)NCc3cccc(O)c3)cc2Br)C(=O)O)nc2ccccc21 [Example 288] | – |
| 7.39 | CC/C=C(\NC(=O)c1ccc(C(=O)NCc2cccc(O)c2)cc1Br)C(=O)O [Example 289] | – |
| 6.72 | CCc1nc(C(C)C)c(/C=C(\NC(=O)c2ccc(C(=O)NCc3cccc(O)c3)cc2Cl)C(=O)O)s1 [Example 303, (Z)-2-[[2-Chloro-4-[[3-(3-hydroxybenzyl)amino]carbonyl]benzoyl]amino]-3-[2-ethyl-4-(1-methylethyl)thiazol-5-yl]propenoic Acid] | – |
| 7.25 | O=C(O)/C(=C/c1cccs1)NC(=O)c1ccc(C(=O)NCc2cccc3[nH]ccc23)cc1Cl [Example 308] | – |
| 8.09 | O=C(O)/C(=C/c1ccsc1)NC(=O)c1ccc(C(=O)NCc2cccc(O)c2)cc1Br [Example 313] | – |
| 8.95 | Cc1cc(C(=O)NCc2cccc(O)c2)cc(C)c1C(=O)N/C(=C\c1ccc2[nH]nnc2c1)C(=O)O [Example 326, (Z)-3-(1H-Benzotriazol-5-yl)-2-[[4-[[(3-hydroxybenzyl)amino]carbonyl]-2,6-dimethylbenzoyl]amino]propenoic Acid] | – |
| 7.69 | C[C@@H](NC(=O)c1ccc(C(=O)N/C(=C\c2cccs2)C(=O)O)c(Cl)c1)c1cccc2ccccc12 [Example 327] | – |
